From patent publication US9605005B2, “Alkynyl alcohols and methods of use” (Genentech, Inc., priority 2013, dated 2017)

Columns and labels:
[1] = system: REL-A (p65) nuclear translocation, HeLa cells; experiment: REL-A (p65) nuclear translocation assay in HeLa cells (classical NF-kB signaling, TNF-α stimulated); format: cell-based; details: Homo sapiens, 0.5 h; HeLa cells, 10 ng/mL TNF-α for 30 minutes; read-out: REL-A HeLa Transloc Assay (IC50)
Experimental: (§1) Several assays were developed to profile the cellular activities of NIK inhibitors.
(§2) (2) A second set of cell assay are used to define the selectivity of NIK inhibitors toward inhibition of classical vs. non-classical NF-kB signaling and rely on quantification of the nuclear translocation of p52 (NF-kB2) and REL-A (p65) using high content cellular imaging. For the p52 (non-classical NF-kB signaling) nuclear translocation assay, HeLa cells are treated with different concentrations of compounds (0.2% DMSO final) in medium containing 10% fetal bovine serum and then stimulated with 100 ng/mL of an anti-lymphotoxin beta receptor antibody (R&D Systems) for 5 hours. In the REL-A nuclear translocation assay, HeLa cells are incubated with compounds (0.2% DMSO final) for 4.5 hours in medium containing 10% fetal bovine serum before stimulating them with 10 ng/mL tumor necrosis factor (TNF)-α (R&D Systems) for 30 minutes. Cells are fixed with 4% paraformaldehyde, permeabilized by adding 0.1% Triton X-100 in phosphate buffered saline, and then are incubated with either 2 ug/mL anti-p52 antibody (Millipore) or 400 ng/mL anti-REL-A (p65) antibody (Santa Cruz Biotechnology). Finally, the cells are incubated with an Alexa488-labeled secondary antibody (Invitrogen) and DRAQ5 DNA stain (Biostatus). Imaging is carried out using an Opera reader (Perkin Elmer) and data are analyzed with the aid of Acapella software (Perkin Elmer). The p52 or REL-Atranslocation into the nucleus is quantified by the ratio of the nuclear to cytoplasmic signal intensity. […] The compounds in listed in Table 1 have the corresponding inhibitory value (IC50 in micromolar) for NIK p52 Translocation Assay as set forth in Table 2.
(§3) The compounds in listed in Table 1 have the corresponding inhibitory values (IC50 in micromolar) for the Translocation Assays as set forth in Table 2.

[2] = system: p52 (NF-kB2) nuclear translocation, HeLa cells; experiment: p52 (NF-kB2) nuclear translocation assay in HeLa cells (non-classical NF-kB signaling, anti-lymphotoxin beta receptor antibody stimulated); format: cell-based; details: Homo sapiens, 100 ng/mL anti-lymphotoxin beta receptor antibody for 5 hours, read-out: p52 HeLa Transloc Assay (IC50)
Experimental: as §1, §2, §3

[3] = target: nuclear factor-kappa B (NF-kB)-inducing kinase (NIK) (Homo sapiens (Human), UniProt Q99558); experiment: NIK enzyme inhibition assay (Transcreener ADP, NIK ADP-FP); format: biochemical; details: purified NIK 0.5 nM, 10 μM ATP, fluorescence polarization; read-out: NIK ADP-FP (Ki μM)
nuclear factor-kappa B (NF-kB)-inducing kinase (NIK), sequence (Q99558 whole entry): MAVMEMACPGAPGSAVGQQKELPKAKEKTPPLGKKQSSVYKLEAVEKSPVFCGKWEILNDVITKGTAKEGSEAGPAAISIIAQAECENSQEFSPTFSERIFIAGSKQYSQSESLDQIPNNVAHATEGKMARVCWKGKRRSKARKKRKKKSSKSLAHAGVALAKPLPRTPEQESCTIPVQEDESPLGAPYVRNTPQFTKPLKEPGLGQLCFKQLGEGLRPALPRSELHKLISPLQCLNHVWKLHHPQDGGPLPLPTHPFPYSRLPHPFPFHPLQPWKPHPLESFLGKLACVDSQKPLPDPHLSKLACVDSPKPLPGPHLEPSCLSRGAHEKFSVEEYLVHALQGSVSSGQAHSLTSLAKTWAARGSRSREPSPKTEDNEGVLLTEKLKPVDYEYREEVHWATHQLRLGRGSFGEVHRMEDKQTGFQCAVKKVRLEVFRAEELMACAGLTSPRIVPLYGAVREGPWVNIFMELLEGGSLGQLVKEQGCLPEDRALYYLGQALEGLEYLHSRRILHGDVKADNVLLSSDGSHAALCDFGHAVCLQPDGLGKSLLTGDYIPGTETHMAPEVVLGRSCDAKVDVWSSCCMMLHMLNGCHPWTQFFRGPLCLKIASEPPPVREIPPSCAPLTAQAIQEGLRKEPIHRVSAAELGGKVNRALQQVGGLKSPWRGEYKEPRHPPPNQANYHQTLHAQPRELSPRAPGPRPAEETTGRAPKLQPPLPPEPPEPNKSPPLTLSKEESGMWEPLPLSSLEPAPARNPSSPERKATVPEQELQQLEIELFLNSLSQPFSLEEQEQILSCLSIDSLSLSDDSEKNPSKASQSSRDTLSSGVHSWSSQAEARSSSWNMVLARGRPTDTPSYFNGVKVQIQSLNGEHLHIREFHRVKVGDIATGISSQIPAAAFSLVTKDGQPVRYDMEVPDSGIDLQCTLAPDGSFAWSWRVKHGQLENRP

| SMILES | Ki [3] [nM] | IC50 [1] [nM] | IC50 [2] [nM] |
| --- | --- | --- | --- |
| CN1CC[C@@](O)(C#Cc2cccc(-c3nc(C(N)=O)n4cc(CN5CCOCC5)ccc34)c2)C1=O [Compound 100, 1-[3-[2-[(3R)-3-hydroxy-1-methyl-2-oxo-pyrrolidin-3-yl]ethynyl]phenyl]-6-(morpho-linomethyl)imidazo[1,5-a]pyridine-3-carboxamide] | 1.65 | 2000 | 156 |
| CN1CC[C@@](O)(C#Cc2cccc(-n3nc(C(N)=O)c4cccnc43)c2)C1=O [Compound 53, 1-[3-[2-[(3R)-3-hydroxy-1-methyl-2-oxo-pyrrolidin-3-yl]ethynyl]phenyl]pyrazolo [3,4-b]pyridine-3-carboxamide] |  | 20000 | 37.9 |
| CN1CC[C@@](O)(C#Cc2cccc(-n3nc(C(N)=O)c4ccccc43)c2)C1=O [Compound 1, 1-[3-[2-[(3R)-3-hydroxy-1-methyl-2-oxo-pyrrolidin-3-yl]ethynyl]phenyl]indazole-3-carboxamide] |  | 20000 | 57 |
| CN1CC[C@@](O)(C#Cc2cccc(-c3nc(C(N)=O)c4ccccn34)c2)C1=O [Compound 88, 3-[3-[2-[(3R)-3-hydroxy-1-methyl-2-oxo-pyrrolidin-3-yl]ethynyl]phenyl]imidazo[1,5-a]pyridine-1-carboxamide] |  | 20000 | 240 |
| COc1cnc2c(c1)c(C(N)=O)nn2-c1cccc(C#C[C@]2(O)CCN(C)C2=O)c1 [Compound 74, 1-[3-[2-[(3R)-3-hydroxy-1-methyl-2-oxo-pyrrolidin-3-yl]ethynyl]phenyl]-5-methoxy-pyrazolo[3,4-b]pyridine-3-carboxamide] |  | 8000 | 13.9 |
| COc1ccc2c(-c3cccc(C#C[C@]4(O)CCN(C)C4=O)c3)nc(C(N)=O)n2c1 [Compound 98, 1-[3-[2-[(3R)-3-hydroxy-1-methyl-2-oxo-pyrrolidin-3-yl]ethynyl]phenyl]-6-methoxy-imidazo[1,5-a]pyridine-3-carboxamide] |  | 6320 | 17 |
| CN1CC[C@@](O)(C#Cc2ccnc(-n3nc(C(N)=O)c4cc(F)ccc43)c2)C1=O [Compound 54, 5-fluoro-1-[4-[2-[(3R)-3-hy-droxy-1-methyl-2-oxo-pyrroli-din-3-yl]ethynyl]-2-pyri-diyl]indazole-3-carboxamide] |  | 2000 | 39 |
| CN1CC[C@@](O)(C#Cc2cccc(-c3nc(C(N)=O)n4ccccc34)c2)C1=O [Compound 77, 1-[3-[2-[(3R)-3-hydroxy-1-methyl-2-oxo-pyrrolidin-3-yl]ethynyl]phenyl]imidazo[1,5-a]pyridine-3-carboxamide] |  | 20000 | 29.8 |
| CN1CC[C@@](O)(C#Cc2ccnc(-n3nc(C(N)=O)c4c3CCCC4)c2)C1=O [Compound 51, 1-[4-[2-[(3R)-3-hydroxy-1-methyl-2-oxo-pyrrolidin-3-yl]ethynyl]-2-pyridyl]-4,5,6,7-tetrahydroindazole-3-carbox-amide] |  | 7190 | 225 |
| CN1CC[C@@](O)(C#Cc2cccc(-n3nc(C(N)=O)c4c3CCN(CC(C)(C)O)C4)c2)C1=O [Compound 40, 1-[3-[2-[(3R)-3-hydroxy-1-methyl-2-oxo-pyrrolidin-3-yl]ethynyl]phenyl]-5-(2-hy-droxy-2-methyl-propyl)-6,7-dihydro-4H-pyrazolo[4,3-c]pyridine-3-carboxamide] | 71 |  |  |
| CN1CC[C@@](O)(C#Cc2ccnc(-n3nc(C(N)=O)c4c3C[C@]3(C)C[C@@H]3C4)c2)C1=O [Compound 5, (4aR,5aS)-1-[4-[2-[(3R)-3-hydroxy-1-methyl-2-oxo-pyrroli-din-3-yl]ethynyl]-2-pyri-dyl]-5a-methyl-4,4a,5,6-tetrahydrocyclopropa[f]inda-zole-3-carboxamide] | 13.9 |  |  |
| COC1CN(c2cnc3c(c2)c(C(N)=O)nn3-c2cccc(C#C[C@]3(O)CCN(C)C3=O)c2)C1 [Compound 183, 1-[3-[2-[(3R)-3-hydroxy-1-methyl-2-oxo-pyrrolidin-3-yl]ethynyl]phenyl]-5-(3-methoxyazetidin-1-yl) pyrazolo[3,4-b]pyridine-3-carboxamide] | 0.19 |  |  |
| CN1CC[C@@](O)(C#Cc2cccc(-n3nc(C(N)=O)c4cc(F)ccc43)c2)C1=O [Compound 13, 5-fluoro-1-[3-[2-[(3R)-3-hy-droxy-1-methyl-2-oxo-pyrroli-din-3-yl]ethynyl]phenyl] indazole-3-carboxamide] |  | 20000 | 73 |
| CN1CC[C@@](O)(C#Cc2ccnc(-n3nc(C(N)=O)c4ccccc43)c2)C1=O [Compound 52, 1-[4-[2-[(3R)-3-hydroxy-1-methyl-2-oxo-pyrrolidin-3-yl]ethynyl]-2-pyridyl]indazole-3-carboxamide] |  | 20000 | 22.8 |
| CN1CC[C@@](O)(C#Cc2ccnc(-n3nc(C(N)=O)c4c3CC(C)(C)CC4)c2)C1=O [Compound 4, 1-[4-[2-[(3R)-3-hydroxy-1-methyl-2-oxo-pyrrolidin-3-yl]ethynyl]-2-pyridyl]-6,6-dimethyl-5,7-dihydro-4H-inda-zole-3-carboxamide] | 2.92 |  |  |
| CN1CC[C@@](O)(C#Cc2cccc(-c3nc(C(N)=O)c(N)s3)c2)C1=O [Compound 195, 5-amino-2-[3-[2-[(3R)-3-hydroxy-1-methyl-2-oxo-pyrrolidin-3-yl]ethynyl]phenyl]thiazole-4-carboxamide] | 0.05 |  |  |

Continued, in another order:

| Ki [3] [nM] | SMILES | IC50 [1] [nM] | IC50 [2] [nM] |
| --- | --- | --- | --- |
| 64.7 | CN1CC[C@@](O)(C#Cc2cccc(-n3nc(C(N)=O)c4cc(CN5CCCC5)ccc43)c2)C1=O [Compound 48, 1-[3-[2-[(3R)-3-hydroxy-1-methyl-2-oxo-pyrrolidin-3-yl]ethynyl]phenyl]-5-(pyrro-lidine-1-ylmethyl)indazole-3-carboxamide] |  |  |
| 0.1 | C[C@H]1Cc2c(C(N)=O)nn(-c3cccc(C#C[C@]4(O)CCN(C)C4=O)c3)c2C1 [Compound 193, (5S)-1-[3-[2-[(3R)-3-hydroxy-1-methyl-2-oxo-pyrrolidin-3-yl]ethynyl]phenyl]-5-methyl-5,6-dihydro-4H-cyclopenta[c]pyrazole-3-carboxamide] |  |  |
| 0.08 | CNC(=O)c1ccc2c(c1)c(C(N)=O)nn2-c1cccc(C#C[C@]2(O)CCN(C)C2=O)c1 [Compound 112, 1-[3-[2-[(3R)-3-hydroxy-1-methyl-2-oxo-pyrrolidin-3-yl]ethynyl]phenyl]-N5-meth-yl-indazole-3,5-dicarbox-amide] |  |  |
| 9.75 | COc1cccc2c(C(N)=O)nn(-c3cccc(C#C[C@]4(O)CCN(C)C4=O)c3)c12 [Compound 23, 1-[3-[2-[(3R)-3-hydroxy-1-methyl-2-oxo-pyrrolidin-3-yl]ethynyl]phenyl]-7-methoxy-indazole-3-carboxamide] |  |  |
| 1.31 | CN1CC[C@@](O)(C#Cc2cccc(-n3nc(C(N)=O)c4cnc(C#N)cc43)c2)C1=O [Compound 133, 6-cyano-1-[3-[2-[(3R)-3-hy-droxy-1-methyl-2-oxo-pyrroli-din-3-yl]ethynyl]phenyl] pyrazolo[4,3-c]pyridine-3-carboxamide] |  |  |
| 0.63 | NC(=O)c1nn(-c2cccc(C#C[C@]3(O)CCCC3=O)c2)c2ccccc12 [Compound 116, 1-[3-[2-[(1R)-1-hydroxy-2-oxo-cyclopentyl]ethynyl]phe-nyl]indazole-3-carboxamide] |  |  |
| 1250 | CN1C[C@H](O)[C@](O)(C#Cc2cccc(-n3nc(C(N)=O)c4ccccc43)c2)C1=O [Compound 128, 1-[3-[2-[(3R,4S)-3,4-dihydroxy-1-methyl-2-oxo-pyrroli-din-3-yl]ethynyl]phenyl]inda-zole-3-carboxamide] |  |  |
